These are literature values, as cited in patent publication US20020192834A1, “Analysis of caffeine” (priority 2001, published 2002).

The conditions of this data set: after consuming caffeine in coffee; background statement.

`Cn1c(=O)c2c(ncn2C)n(C)c1=O` [caffeine, trimethylxanthine]: the half-life of caffeine result is “about 6 hours”.
